Data on twelve compounds can be found in ChEMBL document CHEMBL3784916, “Synthesis and anticancer activity of novel fluorinated asiatic acid derivatives” (Eur J Med Chem, 2016).

The test system of data set [1] is HeLa. Briefly: Cytotoxicity against human HeLa cells after 72 hrs by MTT assay. It counts as functional, cell-based. A general note: Tetrazolium assays rely on reduction of a dye to a coloured formazan, in cell work by metabolically active cells.
Data set [2] deals with Jurkat. Kind of data set: Cytotoxicity against human Jurkat cells after 72 hrs by XTT assay. It counts as functional, cell-based.
Data set [3] relates to PC-3. Kind of data set: Cytotoxicity against human PC3 cells after 72 hrs by MTT assay. It counts as functional, cell-based.
Data set [4] concerns MCF7. Kind of data set: Cytotoxicity against human MCF7 cells after 72 hrs by MTT assay. It counts as functional, cell-based.
Data set [5] relates to MIA PaCa-2. Briefly: Cytotoxicity against human MIAPaCa2 cells after 72 hrs by MTT assay. It counts as functional, cell-based.
Data set [6] relates to A-375. Briefly: Cytotoxicity against human A375 cells after 72 hrs by MTT assay. It counts as functional, cell-based.
Data set [7] relates to BJ. Kind of data set: Cytotoxicity against human BJ cells after 72 hrs by MTT assay. Conditions: human, bj; call rule not given here. It counts as cell-based.
Data set [8] has as its system HT-29. Briefly: Cytotoxicity against human HT-29 cells after 72 hrs by MTT assay. It counts as functional, cell-based. The note with it: HT-29, 72 h.

Usually IC50 stands for the concentration that inhibits the measured activity by half. With `C[C@H]1[C@H](C)CC[C@@]23CC[C@]4(C)[C@](OC2=O)([C@H](F)C[C@@H]2[C@@]5(C)C(C#N)=C[C@@](C)(CO)[C@@H]5CC[C@]24C)[C@H]13`, half-maximal inhibition in data set [1] (IC50) required 7.5 µM. Besides, the Activity entry in data set [2], in data set [3], in data set [4], in data set [5], in data set [6] and in data set [7] was “Dose-dependent effect” in each case.
As to `COC(=O)[C@H](C)N1C(=O)[C@]23CC[C@@H](C)[C@H](C)[C@H]2[C@]12[C@H](F)C[C@@H]1[C@@]4(C)C[C@@H](OC(C)=O)[C@H](OC(C)=O)[C@@](C)(COC(C)=O)[C@@H]4CC[C@@]1(C)[C@]2(C)CC3`, the IC50 came to 6.37 µM in data set [8] and 3.97 µM in data set [1]. Also, the Activity entry in data set [2], in data set [3], in data set [4], in data set [5], in data set [6] and in data set [7] was “Dose-dependent effect” throughout.
For the compound `C[C@H]1[C@H](C)CC[C@@]23CC[C@]4(C)[C@](OC2=O)([C@H](F)C[C@@H]2[C@@]5(C)C(C=O)=C[C@@](C)(COC(=O)CCC(=O)O)[C@@H]5CC[C@]24C)[C@H]13`, the IC50 in data set [8] was 6.35 µM; in data set [1], 3.48 µM. For the same compound, the Activity entry in data set [2], in data set [3], in data set [4], in data set [5], in data set [6] and in data set [7] was “Dose-dependent effect” throughout.
As for `CC(=O)OC[C@@]1(C)[C@@H]2CC[C@]3(C)[C@H](C[C@@H](F)[C@]45OC(=O)[C@@]6(CC[C@@H](C)[C@H](C)[C@H]64)CC[C@]53C)[C@@]2(C)CC(=O)[C@@H]1OC(C)=O`, half-maximal inhibition in data set [1] (IC50) required 11.7 µM. Also, the Activity result in data set [2], in data set [3], in data set [4], in data set [5], in data set [6] and in data set [7] was “Dose-dependent effect” in each case.
Turning to `C[C@H]1[C@H](C)CC[C@@]23CC[C@]4(C)[C@](OC2=O)([C@H](F)C[C@@H]2[C@@]5(C)C[C@@H](O)OC[C@](C)(C=O)[C@@H]5CC[C@]24C)[C@H]13`, the IC50 in data set [8] was found to be 11.2 µM; in data set [1] it was 7.4 µM. Besides, the Activity entry in data set [2], in data set [3], in data set [4], in data set [5], in data set [6] and in data set [7] was “Dose-dependent effect” in each case.
In turn, `CC(=O)OC[C@@]1(C)[C@@H]2CC[C@]3(C)[C@H](CC=C4[C@@H]5[C@@H](C)[C@H](C)CC[C@]5(C(=O)O)CC[C@]43C)[C@@]2(C)C[C@@H](OC(C)=O)[C@@H]1OC(C)=O` had an IC50 in data set [1] of 6.1 µM. Further, the Activity entry in data set [2], in data set [3], in data set [4], in data set [5], in data set [6] and in data set [7] was “Dose-dependent effect” each time.
Regarding `CC(=O)OC[C@@]1(C)[C@@H]2CC[C@]3(C)[C@H](C[C@@H](F)[C@]45NC(=O)[C@@]6(CC[C@@H](C)[C@H](C)[C@H]64)CC[C@]53C)[C@@]2(C)C[C@@H](OC(C)=O)[C@@H]1OC(C)=O`, the IC50 was 7.5 µM in data set [8] and 2.37 µM in data set [1]. For the same compound, the Activity entry in data set [2], in data set [3], in data set [4], in data set [5], in data set [6] and in data set [7] was “Dose-dependent effect” each time.
Take `COC(=O)CNC(=O)[C@]12CC[C@@H](C)[C@H](C)[C@H]1C1=CC[C@@H]3[C@@]4(C)C[C@@H](OC(C)=O)[C@H](OC(C)=O)[C@@](C)(COC(C)=O)[C@@H]4CC[C@@]3(C)[C@]1(C)CC2`: half-maximal inhibition in data set [1] (IC50) was put at 0.98 µM. In addition, the Activity entry in data set [2], in data set [3], in data set [4], in data set [5], in data set [6] and in data set [7] was “Dose-dependent effect” throughout.
In turn, `CNC(=O)[C@]12CC[C@@H](C)[C@H](C)[C@H]1C1=CC[C@@H]3[C@@]4(C)C[C@@H](OC(C)=O)[C@H](OC(C)=O)[C@@](C)(COC(C)=O)[C@@H]4CC[C@@]3(C)[C@]1(C)CC2` had an IC50 in data set [1] of 1.1 µM. Also, the Activity result in data set [2], in data set [3], in data set [4], in data set [5], in data set [6] and in data set [7] was “Dose-dependent effect” in each case.
`CCCC(=O)OC[C@@]1(C)[C@@H]2CC[C@]3(C)[C@H](C[C@@H](F)[C@]45OC(=O)[C@@]6(CC[C@@H](C)[C@H](C)[C@H]64)CC[C@]53C)[C@@]2(C)C[C@@H](OC(=O)CCC)[C@@H]1OC(=O)CCC`: the IC50 came out at 7.4 µM in data set [8] and 5.05 µM in data set [1]. Also, the Activity entry in data set [2], in data set [3], in data set [4], in data set [5], in data set [6] and in data set [7] was “Dose-dependent effect” in each case.
Consider `COC(=O)[C@H](C)NC(=O)[C@]12CC[C@@H](C)[C@H](C)[C@H]1C1=CC[C@@H]3[C@@]4(C)C[C@@H](OC(C)=O)[C@H](OC(C)=O)[C@@](C)(COC(C)=O)[C@@H]4CC[C@@]3(C)[C@]1(C)CC2`, for which the IC50 in data set [1] came out at 1.07 µM. In addition, the Activity entry in data set [2], in data set [3], in data set [4], in data set [5], in data set [6] and in data set [7] was “Dose-dependent effect” in each case.
Regarding `CC(=O)OC[C@@]1(C)[C@@H]2CC[C@]3(C)[C@H](CC=C4[C@@H]5[C@@H](C)[C@H](C)CC[C@]5(C(N)=O)CC[C@]43C)[C@@]2(C)C[C@@H](OC(C)=O)[C@@H]1OC(C)=O`, it took 1.65 µM to reach half-maximal inhibition in data set [1] (IC50). The Activity entry in data set [2], in data set [3], in data set [4], in data set [5], in data set [6] and in data set [7] was “Dose-dependent effect” in each case.
